Values joined by “and” are separate entries in the source; they are usually repeats but may differ in a detail not shown here. Identical values can stand only once.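 A five-concentration, 48-hour dose response in 96-well plates underlies each endpoint, interpolated linearly between surrounding concentrations. GI50 = concentration required for 50% inhibition of growth. TGI denotes the concentration required for complete inhibition of growth.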
Tests used:
Assay in all cases: NCI tumour cell line growth inhibition, 48 h
[1] = tested on: HS 578T breast
[2] = tested on: U251 CNS
[3] = tested on: SN12K1 renal
[4] = tested on: P388/ADR leukemia
[5] = tested on: KM20L2 colon
[6] = tested on: MDA-N
[7] = tested on: SK-MEL-2 melanoma
[8] = tested on: XF 498 CNS
[9] = tested on: DLD-1 colon
[10] = tested on: P388 leukemia
[11] = tested on: CAKI-1 renal

Compound	TGI [1] [µM]	TGI [2]	TGI [3]	TGI [4] [µM]	GI50 [5]	TGI [5]	TGI [6] [µM]	TGI [7]	GI50 [8] [µM]	TGI [8]	TGI [9]	TGI [10]	TGI [11]
CCCCCCCCCC[C@@H](O)[C@@H]1CC[C@@H]([C@@H]2CC[C@@H]([C@@H](O)CCCCCCCCCCC(O)CC3=CC(C)OC3=O)O2)O1 (stereo partly drawn)	> 10												
Cc1c2cc[n+](C)cc2c(C)c2c1[nH]c1ccccc12		1.94 µM and 2.74 µM	4.3 µM and 4.19 µM	> 77.4	4.95 µM and 2.34 µM	33.4 µM and 19.9 µM	19.6	2.85 µM and 3.5 µM	0.856	5.09 µM and 2.45 µM	> 100 µM and 76.9 µM	24.5 µM and 22.2 µM	58.8 µM and 27.7 µM

— PubChem BioAssay (NCI)
